The test system of one data set is Botrytis cinerea. The settings on record: in vivo.
Another data set deals with Plasmopara viticola. To be noted: in vivo.
In the next data set the test system is Phytophthora infestans. The class given is in vivo. The settings on record: 200 ppm, tomato leaf disks, preventive, assessed four days after inoculation.

Consider four compounds from patent US7947679B2 (priority 2002, dated 2011).

Each structure is given as a SMILES string.

`CC(C)Nc1nc2ncccc2c(Cl)c1-c1c(F)cc(F)cc1F` had a melting point of 202 °C. `CC(C)Nc1c(-c2c(F)cc(F)cc2F)c(Cl)nc2ncccc12` [3 (1), [2-chloro-3-(2,4,6-trifluorophenyl)-[1,8]naphthyridin-4-yl]-isopropylamine] came in with a melting point of 193 °C. Also, in the data set on Botrytis cinerea, the control of disease entry was “greater than 60%”.

As to `CC(C)Nc1c(-c2c(F)cc(F)cc2F)c(Cl)nc2ncc(Br)cc12` [3 (111), [6-bromo-2-chloro-3-(2,4,6-trifluorophenyl)-[1,8]naphthyridin-4-yl]-isopropylamine], in the data set with Plasmopara viticola, the control of disease entry is “greater than 60%”. Take `Fc1cc(F)c(-c2c(Cl)nc3ncccc3c2N2CCOCC2)c(F)c1` [20 (1), 2-chloro-4-morpholin-4-yl-3-(2,4,6-trifluorophenyl)-[1,8]naphthyridine]: the control of disease result in the data set on Phytophthora infestans is reported as “greater than 60%”.

By melting point is commonly meant the temperature of the solid-liquid transition.
